Drawing on patent US20240368174A1, “Antiviral Heterocyclic Compounds” (Enanta Pharmaceuticals, Inc., priority 2023, published 2024), this text covers EC50 for 37 molecules.

In general, EC50 refers to the concentration that produces a half-maximal response. Read a high EC50 as lower potency in that assay.

The structures appear in SMILES notation.

This assay relates to HMPV clinical isolate A2 strain TN 94-49. Kind of assay: HMPV antiviral assay, Method 2 (LLC-MK2 cells with CP-100-356, ATP-Lite). Format: cell-based. As to conditions: human metapneumovirus. A digest of the protocol:
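EC50 comes from a four-parameter fit of percent cell viability (ATP-Lite, normalized to virus-only and cell-only wells) after 7 days at 37 °C. Infection used HMPV A2 TN 94-49 at MOI 0.16 in LLC-MK2 cells, with 2 μM P-gp inhibitor CP-100-356 and 2 μg/mL TPCK-trypsin final; dose range 200 nM top, 2.5-fold, 10 points, duplicate.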

[1] abbreviates: 168 h, hMPV A2 TN/94-49, LLC-MK2 cells with 4 μM CP-100-356, 7 days, ATP-Lite.
[2] abbreviates: hMPV A2 TN/94-49, LLC-MK2 cells with CP-100-356, Method 2.

`COc1cc(C(=O)NC[C@](O)(c2cc3c(c(-n4ncc5c(F)cccc54)n2)OC[C@]3(C)C(N)=O)C(F)(F)F)cc2oc(C3CC3)nc12` [Example 836] displayed a 50% effective concentration (EC50) under setting [1] greater than 200 nM.

On to `COc1cc(C(=O)NC[C@](O)(c2cc3c(c(-c4ccnc(Cl)c4Cl)n2)OC[C@]3(C)C(N)=O)C2(F)CC2)cc2oc(C3CC3)nc12` [Example 520], for which, under setting [2], the EC50 was less than 200 nM.

In turn, `COc1cc(C(=O)NC[C@@](O)(c2ccc(S(C)(=O)=O)cc2)c2cc3c(c(-c4cc(Cl)c(F)cc4F)n2)OC[C@]3(C)C(N)=O)cc2cn(C3CC3)nc12` [Example 482] came in with a concentration for a half-maximal effect (EC50) under setting [2] greater than 200 nM.

For the molecule `COc1cc(C(=O)NC[C@@](O)(c2cccc(F)c2)c2cc3c(c(-c4ccc5c(c4Cl)OC(F)(F)O5)n2)OC[C@]3(C)C(N)=O)cc2oc(C3CC3)nc12` [Example 286], under setting [2], the concentration for a half-maximal effect (EC50) is less than 200 nM.

As to `COc1cc(C(=O)NC[C@@](O)(c2ccccc2)c2cc3c(c(-c4ccnc(C(F)F)c4Cl)n2)OC[C@]3(C)C(N)=O)cc2cn(C3CC3)nc12` [Example 562], the EC50 under setting [2] is less than 200 nM.

Molecule `COc1cc(C(=O)NC[C@@](O)(c2cccc(C#N)c2)c2cc3c(c(-c4cc(Cl)c(F)cc4F)n2)OC[C@]3(C)C(N)=O)cc2cn(C3CC3)nc12` [Example 488] showed a concentration giving a half-maximal response (EC50) under setting [2] of less than 200 nM.

Take `COc1cc(C(=O)NC[C@](O)(c2cc3c(c(-c4cc(F)ncc4Cl)n2)OC[C@]3(C)C(N)=O)C2CC2)cc2cn(C3CC3)nc12` [Example 384]: the concentration giving a half-maximal response (EC50) under setting [2] was less than 200 nM.

`C[C@]1(C(N)=O)COc2c1cc([C@@](O)(CNC(=O)c1cc(C(F)(F)F)c3nn(C4CC4)cc3c1)c1ccccc1)nc2-c1cc(Cl)c(F)cc1F` [Example 228]: the EC50 under setting [2] was less than 200 nM.

In the case of `COc1nccc(-c2nc([C@@](O)(CNC(=O)c3cc(OC)c4nn(C(F)F)cc4c3)c3ccccc3)cc3c2OC[C@]3(C)C(N)=O)c1Cl` [Example 554], the EC50 under setting [2] is less than 200 nM.

For `COc1cc(C(=O)NC[C@@](O)(c2ccccc2)c2cc3c(c(-c4cc(Cl)c(F)cc4F)n2)OC[C@]3(C)C(N)=O)cc2cc(Cl)nnc12` [Example 113], the 50% effective concentration (EC50) under setting [2] is less than 200 nM.

For `COc1cc(C(=O)NC[C@](O)(c2cc3c(c(-c4c(F)cncc4Cl)n2)OC[C@]3(C)C(N)=O)C2CC2)cc2cn(C3CC3)nc12` [Example 724], the EC50 under setting [1] was less than 200 nM.

In the case of `CC(C)c1nc2ccc(C(=O)NC[C@@](O)(c3ccccc3)c3cc4c(c(-c5cc(Cl)c(F)cc5F)n3)OC[C@]4(C)C(N)=O)cc2o1` [Example 224], under setting [2], the EC50 is greater than 200 nM.

For the molecule `COc1cc(C(=O)NC[C@](O)(c2cc3c(c(-c4ccnc(C(C)C)c4Cl)n2)OC[C@]3(C)C(N)=O)C2CC2)cc2cn(C(F)F)nc12` [Example 907], the EC50 under setting [1] is greater than 200 nM.

For `[2H]c1nc2c(OC)cc(C(=O)NC[C@@](O)(c3ccccc3)c3cc4c(c(-c5cc(Cl)c(F)cc5F)n3)OC[C@]4(C)C(N)=O)cc2cc1Cl` [Example 220], under setting [2], the EC50 is less than 200 nM.

With `COc1cccc(-c2nc([C@@](O)(CNC(=O)c3cc(OC)c4nn(C5(F)CC5)cc4c3)c3ccccc3)cc3c2OC[C@]3(C)C(N)=O)c1Cl` [Example 374], under setting [2], the EC50 is less than 200 nM.

With `COc1cc(C(=O)NC[C@](O)(c2cc3c(c(-c4cc(C(F)(F)F)ncc4F)n2)OC[C@]3(C)C(N)=O)C2(F)CC2)cc2cc(C3CC3)nn12` [Example 669], under setting [1], the EC50 was less than 200 nM.

As for `COc1cc(C(=O)NC[C@@](O)(c2ccccc2)c2cc3c(c(-c4cc(Cl)c(F)cc4F)n2)OC[C@]3(C)C(N)=O)cc2oc(N)nc12` [Example 237], the EC50 under setting [2] was less than 200 nM.

`C[C@]1(C(N)=O)COc2c1cc([C@@](O)(CNC(=O)c1cc(OCCO)c3nn(C4CC4)cc3c1)C1CC1)nc2-c1cc(Cl)c(F)cc1F` [Example 126] yielded an EC50 under setting [2] of less than 200 nM.

As for `C[C@]1(C(N)=O)COc2c1cc([C@@](O)(CNC(=O)c1ccc3nc(C4CC4)oc3c1)c1ccccc1)nc2-c1cccc(Cl)c1Cl` [Example 97], the concentration giving a half-maximal response (EC50) under setting [2] is less than 200 nM.

Turning to `COc1cc(C(=O)NC[C@](O)(c2cc3c(c(-c4cccc(F)c4Cl)n2)OC[C@]3(C)C(N)=O)C2(F)CC2)cc2cn(C3CC3)nc12` [Example 617], the EC50 under setting [1] is less than 200 nM.

Take `COc1cc(C(=O)NC[C@@](O)(c2cccc(F)c2)c2cc3c(c(-c4cccc(Cl)c4Cl)n2)OC[C@]3(C)C(N)=O)cc2cc(C3CC3)nn12` [Example 336]: the EC50 under setting [2] is less than 200 nM.

In turn, `COc1cc(C(=O)NC[C@@](O)(c2cccc(S(C)(=O)=O)c2)c2cc3c(c(-c4cc(Cl)c(F)cc4F)n2)OC[C@]3(C)C(N)=O)cc2cn(C3CC3)nc12` [Example 483] yielded an EC50 under setting [2] of less than 200 nM.

On to `COc1cc(C(=O)NC[C@](O)(c2cc3c(c(-c4cc(C(F)(F)F)c(F)cc4F)n2)OC[C@]3(C)C(N)=O)C2CC2)cc2cc(Cl)cnc12` [Example 316], for which, under setting [2], the concentration giving a half-maximal response (EC50) was less than 200 nM.

Under setting [1], `CC(C)c1nccc(-c2nc([C@@](O)(CNC(=O)c3cc(OC4CC4)c4nn(C5CC5)cc4c3)C3CC3)cc3c2OC[C@]3(C)C(N)=O)c1Cl` [Example 913] yielded an EC50 greater than 200 nM.

Consider `COc1cc(C(=O)NC[C@@](O)(c2ccccc2)c2cc3c(c(-c4cccc(Cl)c4Cl)n2)OC[C@]3(C)C(N)=O)cc2oc(C3CC3)nc12` [Example 96], for which, under setting [2], the EC50 was less than 200 nM.

For `CCc1nccc(-c2nc([C@@](O)(CNC(=O)c3cc(OC)c4nn(C5CC5)cc4c3)C3CC3)cc3c2OC[C@]3(C)C(N)=O)c1Cl` [Example 807], the EC50 under setting [1] was less than 200 nM.

With `COc1cc(C(=O)NC[C@@](O)(c2ccccc2)c2cc3c(c(-c4ccnc(F)c4Cl)n2)OC[C@]3(C)C(N)=O)cc2cn(C(F)F)nc12` [Example 663], the concentration for a half-maximal effect (EC50) under setting [1] was less than 200 nM.

On to `COc1cc(C(=O)NC[C@@](O)(c2ccccc2)c2cc3c(c(-c4ccnc(C)c4Cl)n2)OC[C@]3(C)C(N)=O)cc2oc(C3CC3)nc12` [Example 695], for which the EC50 under setting [1] is less than 200 nM.

Under setting [1], `COc1nccc(-c2nc([C@@](O)(CNC(=O)c3cc(OC)c4nn(C5(F)CC5)cc4c3)c3ccc(F)cc3)cc3c2OC[C@]3(C)C(N)=O)c1Cl` [Example 697] displayed an EC50 of less than 200 nM.

`COc1nccc(-c2nc([C@@](O)(CNC(=O)c3cc(OC)c4nn(C5CC5)cc4c3)C3(F)CC3)cc3c2OC[C@]3(C)C(N)=O)c1Cl` [Example 653] had an EC50 under setting [1] of less than 200 nM.

Molecule `COc1cc(C(=O)NC[C@](O)(c2cc3c(c(-c4ccnc5[nH]ccc45)n2)OC[C@]3(C)C(N)=O)C2CC2)cc2cn(C3CC3)nc12` [Example 728] came in with an EC50 under setting [1] greater than 200 nM.

`COc1cc(C(=O)NC[C@@](O)(c2ccc(F)cc2)c2cc3c(c(-c4ccnc(C(F)F)c4Cl)n2)OC[C@]3(C)C(N)=O)cc2cn(C3CC3)nc12` [Example 569] returned an EC50 under setting [2] of less than 200 nM.

With `COc1nccc(-c2nc([C@@](O)(CNC(=O)c3cc(OC4CC4)c4nn(C5CC5)cc4c3)C3(F)CC3)cc3c2OC[C@]3(C)C(N)=O)c1Cl` [Example 657], the EC50 under setting [1] was less than 200 nM.

For `C[C@]1(C(N)=O)COc2c1cc([C@@](O)(CNC(=O)c1cc(C(F)F)c3nn(C4CC4)cc3c1)c1ccccc1)nc2-c1cc(Cl)c(F)cc1F` [Example 229], the EC50 under setting [2] is less than 200 nM.

Consider `COc1cc(C(=O)NC[C@](O)(c2cc3c(c(-n4ccc5ccccc54)n2)OC[C@]3(C)C(N)=O)C(F)(F)F)cc2cn(C(F)F)nc12` [Example 843], for which the concentration giving a half-maximal response (EC50) under setting [1] is less than 200 nM.

`COc1nccc(-c2nc([C@@](O)(CNC(=O)c3cc(OC)c4nn(C5CC5)cc4c3)C3CC3)cc3c2OC[C@]3(C)C(N)=O)c1OC` [Example 813] displayed a 50% effective concentration (EC50) under setting [1] greater than 200 nM.

As for `COc1cc(C(=O)NC[C@@](O)(c2ccccc2)c2cc3c(c(-c4cc(F)c(F)cc4F)n2)OC[C@]3(C)C(N)=O)cc2oc(C)nc12` [Example 193], under setting [2], the EC50 was less than 200 nM.
